From publication PMC11356571, “The Comparative Metabolism of a Novel Hepatocellular Carcinoma Therapeutic Agent, 2,3-Diamino-N-(4-(benzo[d]thiazol-2-yl)phenyl)propanamide, in Human and Animal Hepatocytes” (Metabolites, 2024)

Columns and labels:
Format in all cases: in vitro ADME
CYP1A2 = biological target: T1, CYP1A2 (Homo sapiens, UniProt P05177); assay: Incubation with human cDNA-expressed CYP1A2; conditions: CYP1A2, 30 min at 37 °C with NADPH; ETN101 10 μM or M1 1 μM
T1 construct: purchased Cypex Ltd. (Dundee, UK)
T1 sequence (P05177 1-516): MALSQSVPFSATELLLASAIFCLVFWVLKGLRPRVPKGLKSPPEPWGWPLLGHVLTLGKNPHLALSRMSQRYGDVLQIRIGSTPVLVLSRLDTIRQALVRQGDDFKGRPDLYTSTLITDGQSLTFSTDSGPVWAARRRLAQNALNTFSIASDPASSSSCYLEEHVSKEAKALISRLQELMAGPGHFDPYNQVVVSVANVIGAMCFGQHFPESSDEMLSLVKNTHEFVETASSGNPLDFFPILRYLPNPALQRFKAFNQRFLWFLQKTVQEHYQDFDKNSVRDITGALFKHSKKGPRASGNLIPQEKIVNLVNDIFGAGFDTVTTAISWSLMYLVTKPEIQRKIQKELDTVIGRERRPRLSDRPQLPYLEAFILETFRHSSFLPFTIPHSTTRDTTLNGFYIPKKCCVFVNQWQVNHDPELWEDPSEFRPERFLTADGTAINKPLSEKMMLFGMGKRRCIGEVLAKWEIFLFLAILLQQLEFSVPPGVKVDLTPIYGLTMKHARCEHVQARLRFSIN
Protocol: (§1) ETN101 or M1 was incubated with nine human cDNA-expressed CYP enzymes (1A2, 2A6, 2B6, 2C8, 2C9, 2C19, 2D6, 2E1, and 3A4) to identify the CYPs involved in the metabolism of ETN101. Based on the preliminary study, the incubation conditions were determined as follows: Briefly, reaction mixtures of 50 μL containing ETN101 (final concentration: 10 μM) or M1 (final concentration: 1 μM), and CYPs (final amount: 5 pmol for CYP1A2, 2A6, 2C8, 2C9, 2C19, 2D6, and 3A4; 10 pmol for CYP2B6 and 2E1) were prepared in 0.1 M potassium phosphate buffer. The reaction was initiated by adding 50 μL of NADPH- regenerating system; the mixtures were incubated for 0 min or 30 min at 37 °C in triplicate. Reactions were terminated by the addition of 100 μL of ice-cold acetonitrile containing the IS (camptothecin, 200 ng/mL). Samples were centrifuged at 13,000 rpm for 5 min at 4 °C. An aliquot of 2 μL supernatant was injected in LC–MS/MS system.
(§2) For enzyme characterization, an Agilent 6460 triple quadrupole mass spectrometer coupled with a 1260 HPLC system (Agilent Technologies, Santa Clara, CA, USA) and a Kinetex Halo® C18 column (2.7 μm, 2.1 × 50 mm, Advanced Material Technology, Wilmington, DE, USA) were used for chromatographic separation. […] ETN101, M1, and M2 were detected via MRM using ESI in the positive mode. […]

CYP2D6 = biological target: T2, CYP2D6 (Homo sapiens, UniProt P10635); assay: Incubation with human cDNA-expressed CYP2D6; conditions: CYP2D6, 30 min at 37 °C with NADPH; ETN101 10 μM or M1 1 μM
T2 construct: purchased Corning Life Sciences (Woburn, MA, USA)
T2 sequence (P10635 whole entry): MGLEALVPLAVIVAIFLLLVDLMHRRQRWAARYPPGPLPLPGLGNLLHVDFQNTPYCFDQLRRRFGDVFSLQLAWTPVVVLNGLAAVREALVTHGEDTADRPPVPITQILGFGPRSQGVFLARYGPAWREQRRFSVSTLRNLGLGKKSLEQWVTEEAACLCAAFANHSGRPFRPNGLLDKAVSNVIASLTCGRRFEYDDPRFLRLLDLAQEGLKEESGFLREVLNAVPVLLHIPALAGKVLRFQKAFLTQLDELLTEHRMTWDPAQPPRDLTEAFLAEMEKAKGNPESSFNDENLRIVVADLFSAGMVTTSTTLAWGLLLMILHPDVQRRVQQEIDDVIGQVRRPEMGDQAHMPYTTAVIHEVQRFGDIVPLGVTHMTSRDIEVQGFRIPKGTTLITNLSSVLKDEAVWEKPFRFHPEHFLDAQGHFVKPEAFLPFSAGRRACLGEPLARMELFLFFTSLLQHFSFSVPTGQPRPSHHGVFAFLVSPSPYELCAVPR
Protocol: as §1, §2

CES1c = biological target: T3, CES1c (Homo sapiens, UniProt P23141); assay: Incubation with human recombinant CES1c; conditions: 60 min at 37 °C, ETN101 10 μM or M1 1 μM
T3 construct: purchased Corning Life Sciences (Woburn, MA, USA)
T3 sequence (P23141 18-566 isoform P23141-3 limits assumed): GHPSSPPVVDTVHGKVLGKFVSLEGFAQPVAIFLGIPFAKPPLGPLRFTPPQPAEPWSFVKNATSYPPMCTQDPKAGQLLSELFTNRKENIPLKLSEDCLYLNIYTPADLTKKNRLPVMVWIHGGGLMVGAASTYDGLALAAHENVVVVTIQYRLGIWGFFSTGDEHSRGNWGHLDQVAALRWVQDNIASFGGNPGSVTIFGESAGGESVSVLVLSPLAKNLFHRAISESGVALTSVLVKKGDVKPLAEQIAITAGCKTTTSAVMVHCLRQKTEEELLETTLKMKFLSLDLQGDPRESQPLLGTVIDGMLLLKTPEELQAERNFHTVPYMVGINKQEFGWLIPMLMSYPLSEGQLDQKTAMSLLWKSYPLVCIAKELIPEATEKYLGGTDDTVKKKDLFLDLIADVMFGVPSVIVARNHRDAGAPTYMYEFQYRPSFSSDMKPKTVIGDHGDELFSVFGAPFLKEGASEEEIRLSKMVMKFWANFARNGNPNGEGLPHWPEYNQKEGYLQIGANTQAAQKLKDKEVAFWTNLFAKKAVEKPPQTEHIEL
Protocol: To screen for CES enzymes responsible for the hydrolysis of ETN101 or M1, 50 μL of reaction mixtures containing human cDNA-expressed CES enzymes (CES1b, CES1c, and CES2) at the concentration of 1 mg/mL, 10 μM ETN101, or 1 μM M1 in 0.1 M potassium phosphate buffer were incubated at 37 °C for 0 min or 60 min in triplicate. The reactions were quenched by adding 50 μL of ice-cold acetonitrile containing the internal standard (camptothecin, 10 μg/mL). Following centrifugation at 13,000 rpm for 5 min, a 2 μL aliquot of the supernatant was injected into the LC-MS/MS system. The reliability of the analysis was confirmed by incorporating three different levels of quality control samples at the beginning and end of each analytical batch.
as §2, with “separation. The mobile phases comprised 0.1% (v/v) formic acid in water (mobile phase A) and 0.1% formic acid (v/v) in acetonitrile (mobile phase B).” for “separation.”

Compound | Percentage remaining (CYP1A2) [%] | Percentage remaining (CYP2D6) [%] | Percentage remaining (CES1c) [%]
NCC(N)C(=O)Nc1ccc(-c2nc3ccccc3s2)cc1 (stereo not drawn) [ETN101, 2,3-diamino-N-(4-(benzo[d]thiazol-2-yl)phenyl)propanamide] | 126.3 | 86.9 | 107.3
Nc1ccc(-c2nc3ccccc3s2)cc1 [M1, 2-(4-aminophenyl)benzothiazole] | 5.3 | 83.0 | 122.7
